Data: EP0510260A2, “6'-C-alkyl-3-deazaneplanocin A derivative and its preparation process and use” (ASAHI KASEI KOGYO KABUSHIKI KAISHA, priority 1991, dated 1992)

What was measured:
virus = experiment: Antiviral activity: cytopathic effect (CPE) inhibition in virus-inoculated Vero cells; type: cell-based; conditions: MIC, virus at 100 times TCID50, cultured 36 hours at 37°C, CPE observed microscopically
Protocol: By partly modifying the testing method reported in Antimicrobial Agents and Chemotherapy, 24(3), 353-361 (1983), antiviral activity was analyzed in the following manner. 200 µℓ of Eagle's minimum essential medium (with 10% fetal calf serum), in which Vero cells (product of Flow General Inc., marketed by Dainippon Pharmaceutical Co., Ltd., available from National Institute of Health) were suspended at the concentration of 3 x 10⁵ cells/mℓ, were cultured in a […] flat bottom plate. Subsequent to dense monolayer culture, the medium was removed and 90 µℓ of Eagle's minimum essential medium (with 3% fetal calf serum) containing a test compound were added. The tissue culture infections dosis 50% (TCID₅₀) had been determined in advance without addition of any drug. The above-prepared culture plate was inoculated with 10 µℓ of a virus solution whose concentration was 100 times higher than TCID₅₀ determined in advance. The cells were cultured for 36 hours at 37°C under 5% CO₂. The cytopathic effect (CPE) was microscopically observed, whereby the minimum virus growth inhibitory concentration (MIC) was determined.

Vero cells = experiment: Measurement of cytotoxicity by the MTT method; type: cell-based; conditions: cultured 72 hours, ID50 (growth of cells inhibited to 50%)
Protocol: Added to 100 µℓ of Eagle's minimum essential medium were 100 µℓ of Eagle's minimum essential medium (with 10% fetal calf serum), in which Vero cells were suspended at the concentration of 5 x 10⁴ cells/mℓ as well as a test compound. The resultant mixture was cultured for 72 hours in a […] flat bottom plate. The cytotoxicity of the test compound was then measured by the MTT measuring method reported in J. Immunol. Methods, 65, 55-63 (1983). The cytotoxicity is indicated in terms of the concentration (ID₅₀) which inhibited the growth of cells to 50%.

In the case of `Nc1nccc2c1ncn2[C@@H]1C=C(CO)[C@@H](O)[C@H]1O` [3-Deazaneplanosin A, 3-deazaneplanocin A], the “Minimum virus growth inhibitory concen.” value (virus) was 0.24 µg/mL.

With `CC(O)C1=C[C@@H](n2cnc3c(N)nccc32)[C@H](O)[C@@H]1O` (single isomer, unassigned) [6'-c-Methyl-3-deazaneplanocin A, 6'-C-Methyl-3-deazaneplanocin A] the “Minimum virus growth inhibitory concen.” value (virus) was 1.0 µg/mL and the “50% cell growth inhibitory concentration (ID50)” value (Vero cells) was 12.4 µg/mL.

`Nc1ncnc2c1ncn2[C@@H]1C=C(CO)[C@@H](O)[C@H]1O` [Neplanocin A] was tested, and the “Minimum virus growth inhibitory concen.” value (virus) was 0.24 µg/mL.
